Experimental data as given in patent US20020193379A1, “Compositions and methods for decreasing the risk of or preventing neural tube disorders in mammals” (Insmed Incorporated, priority 2001, published 2002).
Where two headings read alike, the source gives them in different places.

Experiments:
[1] = system: curly tail fetuses (spina bifida and tail flexion defects); assay: In utero inositol treatment, oral dosing by gavage, fetuses inspected at E18.5; format: in vivo, mouse
Method: (§1) Mice—Curly tail mice are maintained as a homozygous, random-bred stock (Van Straaten, H. W. M. & Copp, A. J., Anat. Embryol. 203, 225-237 (2001)) Experimental litters were generated by timed matings, and the day of finding a copulation plug was designated embryonic day (E) 0.5.
In utero inositol treatment (oral dosing)—For oral administration, pregnant mice were gavaged with 0.5 ml inositol solution in PBS at 12 hourly intervals from E8.5 to E10.5 (six doses in total; 800 μg/g body weight/day).
(§2) Pregnant females were killed at E18.5, and the total number of implantations, classified as viable fetuses or resorptions, was recorded. Fetuses were dissected from the uterus and inspected immediately for the presence of open lumbo-sacral spina bifida and tail flexion defects: the primary manifestations of the curly tail genetic defect.

[2] = system: rat fibroblasts expressing the human insulin receptor; settings: cited from earlier work
[3] = system: curly tail fetuses (spina bifida and tail flexion defects); format: in vivo, mouse
Method: as §1
In utero inositol treatment (subcutaneous administration)—For sub-cutaneous administration, osmotic mini-pumps (capacity 100 μl, delivery rate 1 μl/hour; Model 1003D, Alzet) were filled with solutions of 30, 75 or 150 mg/ml inositol (delivering 29, 72 and 144 μg inositol/g body weight/day respectively for a 25 g mouse), or PBS as a control. Mini-pumps were incubated in sterile PBS at 37° C. for 4 hours and then implanted subcutaneously on the back of pregnant mice at E8.5. General anesthesia was induced by an intra-peritoneal injection of 0.01 ml/g body weight of a solution comprising 10% Hypnovel® (midazolam 5 mg/ml) and 25% Hypnorm® (fentanyl citrate 0.315 mg/ml, fluanisone 10 mg/ml) in sterile distilled water.
as §2

[4] = system: curly tail embryos (posterior neuropore closure); format: cell-based, mouse; settings: for Effect on posterior neuropore length: vs PBS-treated controls
Method: as §1
In vitro inositol treatment—E9.5 embryos (17-19 somite stage) were cultured for 24 hours at 38° C. in whole rat serum. Thirty minutes after the start of culture, myo-inositol (Sigma, UK) or D-chiro-inositol (Insmed, Va., USA) was added to the medium (62.5 μl of inositol stock per ml rat serum) to a final concentration of 5, 10, 20 or 50 μg/ml inositol. Control cultures received an equal volume of phosphate buffered saline (PBS). Following culture, embryos were scored for: (i) posterior neuropore length (the distance from the rostral end of the posterior neuropore to the tip of the tail bud), (ii) crown-rump length and (iii) somite number.

curly-tail mouse embryos = assay: In vitro culture of curly-tail mouse embryos with inositols at 20 μg/ml for 24 hours; format: cell-based
Method: In in vitro studies, curly-tail mouse embryos were explanted into culture at 9.5 days after conception, corresponding to the onset of low spinal cord neural tube closure. Inositol additions were made at the start of culture and were maintained throughout the 24 hour culture period. Inositols were maintained at 20 μg/ml. At the end of culture, the embryos were dissected from their extraembryonic membranes, and crown-rump and posterior neuropore lengths were measured as indices of developmental growth, progression and low spinal neural tube closure.

[5] = system: curly tail mice (spinal NTDs); settings: cultured embryos and offspring of curly tail mice treated during pregnancy; cited from earlier work
[6] = system: curly tail mouse fetuses (NTDs characterized by spina bifida); assay: In vivo treatment of pregnant curly-tail mice by oral gavage, fetuses scored for NTDs; settings: oral gavage 400 mg/kg twice daily, three days
Method: (§3) In in vivo studies, pregnant curly-tail female mice were treated with inositols or PBS (control) by either subcutaneous injection or oral gavage. Using inositols at 75 mg/ml injected by subcutaneous minipump at […], a total daily dosage of 90 mg/kg/day was administered. Inositols were administered from gestational day 8.5 through day 18.5, and fetuses were scored for NTDs on days 12.5 and 18.5. For oral dosing, mice were administered via gavage with 400 mg/kg of inositol twice daily on gestational days 8.5 through 10.5, with fetuses scored for NTDs on day 12.5.

[7] = system: curly tail mouse fetuses (NTDs characterized by spina bifida); assay: In vivo treatment of pregnant curly-tail mice by subcutaneous minipump, fetuses scored for NTDs; settings: subcutaneous 90 mg/kg/day, four to ten days
Method: as §3

[8] = oral 800 μg inositol/g body weight/day
[9] = subcutaneous 29 μg inositol/g body weight/day
[10] = subcutaneous 72 μg inositol/g body weight/day
[11] = subcutaneous 144 μg inositol/g body weight/day

O[C@H]1[C@H](O)[C@@H](O)[C@H](O)[C@@H](O)[C@H]1O [myo-inositol, reference compound]
Curly tail, % of total for treatment group [1, 8]: 42.9% | Curly tail, number of fetuses [1, 8]: 15 | No. uterine resorptions [1, 8]: 3 | No. viable fetuses [1, 8]: 35 | Normal, % of total for treatment group [1, 8]: 48.6% | Normal, number of fetuses [1, 8]: 17 | Resorptions as % of total number of implantations [1, 8]: 7.9% | Spina bifida ± curly tail, % of total for treatment group [1, 8]: 8.6% | Spina bifida ± curly tail, number of fetuses [1, 8]: 3 | Mean litter size ± SEM ([1]; oral 800 μg inositol/g body weight/day, viable fetuses per litter): 5.83 ± 0.48 | Reduction in the frequency of spina bifida ([1]; oral 800 μg/g body weight/day): 53% | Effect on frequency of spina bifida among offspring ([1]; oral 800 μg/g body weight/day, E8.5 to E10.5): marked reduction in the frequency of spina bifida | Likelihood of fetuses being normal vs PBS (ordinal multilevel regression) ([1]; oral dosing study): did not differ significantly | Effect of insulin stimulation on incorporation into phospholipids [2]: only marginal | Likelihood of fetuses being normal vs PBS (ordinal multilevel regression) ([3]; subcutaneous): reached statistical significance | Curly tail, % of total for treatment group [3, 9]: 41.4% | Curly tail, number of fetuses [3, 9]: 12 | Normal, % of total for treatment group [3, 9]: 37.9% | Normal, number of fetuses [3, 9]: 11 | Spina bifida ± curly tail, % of total for treatment group [3, 9]: 20.7% | Spina bifida ± curly tail, number of fetuses [3, 9]: 6 | Curly tail, % of total for treatment group [3, 10]: 55.2% | Curly tail, number of fetuses [3, 10]: 37 | Normal, % of total for treatment group [3, 10]: 38.8% | Normal, number of fetuses [3, 10]: 26 | Spina bifida ± curly tail, % of total for treatment group [3, 10]: 6.0% | Spina bifida ± curly tail, number of fetuses [3, 10]: 4 | Curly tail, % of total for treatment group [3, 11]: 55.3% | Curly tail, number of fetuses [3, 11]: 52 | Normal, % of total for treatment group [3, 11]: 36.2% | Normal, number of fetuses [3, 11]: 34 | Spina bifida ± curly tail, % of total for treatment group [3, 11]: 8.5% | Spina bifida ± curly tail, number of fetuses [3, 11]: 8 | Decrease in spina bifida frequency relative to PBS controls ([3]; subcutaneous 72 and 144 μg/g body weight/day): 54-56% | Crown-rump length compared with PBS-treated controls [4]: no significant difference | Effect on posterior neuropore length ([4]; 20 μg/ml): not different from PBS-treated controls | Effect on posterior neuropore length ([4]; 50 μg/ml): comparable effect | Mean posterior neuropore length (curly-tail mouse embryos; 20 μg/ml, 24 hours, in vitro): 0.601±0.090 | Mean posterior neuropore to crown-rump length ratio (curly-tail mouse embryos; 20 μg/ml, 24 hours, in vitro): 0.172 ±0.026 | Fold decrease in mean posterior neuropore length (curly-tail mouse embryos; 24 hours of treatment in vitro): 6 fold | Effect on incidence of spinal NTDs [5]: significantly reducing the incidence of spinal NTDs | Number of fetuses showing NTDs characterized by spina bifida [6]: 3 | Percent of treated fetuses showing spina bifida [6]: 8.6% | Number of fetuses showing NTDs characterized by spina bifida [7]: 4 | Percent of treated fetuses showing spina bifida [7]: 6.3%
